Each structure is given as a SMILES string.

Results on one compound are retold here after patent US20040063738A1, “Substituted heterocyclic phthalic acid diamide arthropodicides” (priority 2003, published 2004).

Broadly, the melting point is the temperature of the solid-liquid transition. Regarding `CC(C)NC(=O)c1c(I)cccc1C(=O)Nc1ccc(OCC(F)(F)F)nc1` [Compound 1, 3-iodo-N^2-(1-methylethyl)-N^1-[6-(2,2,2-trifluoroethoxy)-3-pyridinyl]-1,2-benzenedicarboxamide], the melting point was 220 to 225 °C.
